# Laboratory results: patent US20140148336A1, “METHODS OF CONTROLLING FUNGAL PATHOGENS USING POLYENE FUNGICIDES” (priority 2012, published 2014)
# Read-outs that look alike come from different tables or passages of the source.
# Experiments:
# F. virguliforme = format: in vivo, Fusarium virguliforme; conditions: 50 mL per cone, 2% low rate infested soil, 18-21 days
# Experimental: Sorghum was prepared for inoculation. One to two liters of sorghum seed was put into spawn bags, autoclaved, then inoculated with 30-45 mL of an SDA spore suspension. Bags were left in a cupboard at room temperature, then shaken and mixed every few days for three weeks until ready. Sorghum inoculum was assessed for the number of spores per gram of seed by hemacytometer. The sorghum grew to 4.57×10^5 spores/g.
# F. virguliforme spores were enumerated before soil inoculation. First, 25 mL of sterile 0.1% Tween 80 in water was added to sterile 50 mL conical tubes. The tubes where weighed. Then several grains of colonized sorghum from the spawn bag were aseptically added. The tubes were re-weighed to find the exact mass of colonized spores added to the tube. The tubes were shaken at 28-30° C. at approximately 250 rpm for 2-4 hours to release spores from the sorghum seed. Samples were then removed from the tubes and spores were quantified using a hemacytometer. F. virguliforme spores were quantified by making a dilution series from each tube onto PDA plates with 100 ppm chloramphenicol antibiotic.
# Soil inoculation began by grounding sorghum grain inoculum in a Waring blender in small batches for 10-20 seconds on the low setting. The ground sorghum was then mixed into Monterey sand fine #60 (Lapis Luster, RMC pacific materials) at either a “2% low rate,” consisting of 2×10^5 spores/cone with 8.9 g/L of sand, or a “5% high rate,” consisting of 5×10^5 spores/cone with 22.5 g/L of sand. The Monterey sand was not pre-sterilized. The ground sorghum inoculum was added on the same day as the experimental set up. In later experiments, ground sorghum inoculum was mixed into sand based on the enumerated spores per gram of inoculum.
# Natamycin solution was added in four different concentrations to four different groups of untreated seeds in “2% low rate” infested soil cones. The four different concentrations were 250 ppm, 100 ppm, 50 ppm, and 25 ppm. Fifty milliliters of the natamycin solutions were used per cone.
# The assays were planted by first moistening infested sand with water at 150 mL per liter of sand and mixing. The cone-shaped containers were filled 1-2 inches at the bottom with a Sunshine #3 potting mix plug in order to keep the sand in the tube. The containers were then filled to within 1-1.5 inches of the top with moistened and infested sand, taking an average of 120-125 mL to fill each container. The containers were then watered. Two soy seeds were planted into each container. […]
# The plants were allowed to grow for 18-21 days. The plants were then gently removed and assessed for root rot symptoms, with a rating of 1=0% infection on taproot and lateral roots, a 2=<25% infection, a 3=25-50% infection, a 4=51-90% infection, and a 5=>90% infection. […]
# SDS spores = test: Drench treatment on soy seedlings for control of SDS in planta (Example 3); format: in vivo, Fusarium virguliforme; conditions: 50 mL per container, 1×10^7 spores/container, eighteen days
# Excerpt: The plants were allowed to grow for 18-21 days. The plants were then gently removed and assessed for root rot symptoms, with a rating of 1=0% infection on taproot and lateral roots, a 2=<25% infection, a 3=25-50% infection, a 4=51-90% infection, and a 5=>90% infection. Root vigor was rated such that a rating of 4=healthy taproot and many lateral roots, a 3=fewer lateral roots and some stunting, a 2=fewer or stringy lateral roots and more stunting, 1=thin tap root and only a few lateral roots, and a 0=thin and stunted taproot with 0-3 lateral roots. […] Two experiments were performed. The natamycin solutions were used as a drench treatment with 50 mL of the solution applied to each container. Soy seedlings were transplanted into SDS infested soil, with SDS spores at a rate of 1×10^7 spores/container. The natamycin solutions were applied to the containers the day after transplant. Soy roots were washed after eighteen days.
# [1] = system: SDS Fusarium virguliforme; test: Drench treatment on soy seedlings for control of SDS in planta, low concentrations (Example 4); format: in vivo; conditions: for Root Vigor Average Expt. 1 / Root Vigor Average Expt. 2: rating 0 (thin and stunted taproot) to 4 (healthy taproot); for Root Vigor Average Expt. 1: IC 1.6, UIC 3.6; for Root Vigor Average Expt. 2: IC 2.2, UIC 3.9; for Root Rot Average Expt. 2 / Root Rot Average Expt. 1: rating 1 (0% infection) to 5 (>90% infection); for Root Rot Average Expt. 2: IC 3.8, UIC 1; for Root Rot Average Expt. 1: IC 4, UIC 1
# Excerpt: The plants were allowed to grow for 18-21 days. The plants were then gently removed and assessed for root rot symptoms, with a rating of 1=0% infection on taproot and lateral roots, a 2=<25% infection, a 3=25-50% infection, a 4=51-90% infection, and a 5=>90% infection. Root vigor was rated such that a rating of 4=healthy taproot and many lateral roots, a 3=fewer lateral roots and some stunting, a 2=fewer or stringy lateral roots and more stunting, 1=thin tap root and only a few lateral roots, and a 0=thin and stunted taproot with 0-3 lateral roots. […] In these experiments, the inoculum rate was measured by spores/cone at approximately 1×10^7 SDS Fusarium virguliforme spores per cone. Soy plants were germinated first and then transplanted into infested soil. The soybean seeds were germinated in clean sand/soil for 12 days and then seedlings were transplanted into infested soil for 18 days. Natamycin drench was applied 24 hours after transplanting. Natamycin treatment was assessed at 2.5 weeks.
compound,measurement,setting,value
"C[C@@H]1C/C=C/C=C/C=C/C=C/[C@H](O[C@@H]2O[C@H](C)[C@@H](O)[C@H](N)[C@@H]2O)C[C@@H]2O[C@](O)(C[C@@H](O)C[C@H]3O[C@@H]3/C=C/C(=O)O1)C[C@H](O)[C@H]2C(=O)O [Natamycin, natamycin]",root rot ratings as compared to the infected control,F. virguliforme; 25 ppm/container,significantly lowering
same,root vigor as compared to the infected control,F. virguliforme; 25 ppm/container,improving
same,root rot ratings as compared to the infected control,F. virguliforme; 50 ppm/container,significantly lowering
same,root vigor as compared to the infected control,F. virguliforme; 50 ppm/container,improving
same,root rot ratings vs infested control (IC) plants,SDS spores; drench 10 ppm,significantly lower
same,root vigor ratings vs infested control (IC) plants,SDS spores; drench 10 ppm,higher
same,root rot ratings vs infested control (IC) plants,SDS spores; drench 25 ppm,significantly lower
same,root vigor ratings vs infested control (IC) plants,SDS spores; drench 25 ppm,higher
same,root rot ratings vs infested control (IC) plants,SDS spores; drench 50 ppm,significantly lower
same,root vigor ratings vs infested control (IC) plants,SDS spores; drench 50 ppm,higher
same,Root Vigor Average Expt. 1,[1]; drench 1 ppm,1.7
same,Root Vigor Average Expt. 2,[1]; drench 1 ppm,2.5
same,Root Rot Average Expt. 2,[1]; drench 1 ppm,3.2
same,Root Rot Average Expt. 1,[1]; drench 1 ppm,4.5
same,Root Vigor Average Expt. 1,[1]; drench 5 ppm,2
same,Root Vigor Average Expt. 2,[1]; drench 5 ppm,2.7
same,Root Rot Average Expt. 2,[1]; drench 5 ppm,3.4
same,Root Rot Average Expt. 1,[1]; drench 5 ppm,3.9
same,Root Vigor Average Expt. 1,[1]; drench 10 ppm,2.1
same,Root Vigor Average Expt. 2,[1]; drench 10 ppm,3
same,Root Rot Average Expt. 2,[1]; drench 10 ppm,3.1
same,Root Rot Average Expt. 1,[1]; drench 10 ppm,3.5
same,Root Vigor Average Expt. 1,[1]; drench 25 ppm,2.8
same,Root Vigor Average Expt. 2,[1]; drench 25 ppm,3.1
same,Root Rot Average Expt. 2,[1]; drench 25 ppm,2.6
same,Root Rot Average Expt. 1,[1]; drench 25 ppm,2.9
same,Root Vigor Average Expt. 1,[1]; drench 50 ppm,2.3
same,Root Vigor Average Expt. 2,[1]; drench 50 ppm,2.9
same,Root Rot Average Expt. 2,[1]; drench 50 ppm,2.6
same,Root Rot Average Expt. 1,[1]; drench 50 ppm,3.1
